# “And” between values parts separate entries of the source, which are not always exact repeats. Equal values may be shown once. Marks after values point to notes of the source that are not given here.
# Experiments:
# CB1 (rCB1) [1] = biological target: T1, CB1 (rCB1) (Rattus norvegicus, UniProt P20272); experiment: Single-point radioligand displacement screen; format: binding
# [2] = Dynamic light scattering, colloidal aggregation; format: physicochemical; conditions: Log[compound, replicates, sheet FigS2b
# Protocol: Samples were prepared as 8-point half-log dilutions in filtered 50 mM KPi buffer, pH 7.0 with final DMSO concentration at 1% (v/v). Colloidal particle formation was measured using DynaPro Plate Reader II (Wyatt Technologies). All compounds were screened in triplicate.
# hCB1 [3] = biological target: T2, hCB1 (Homo sapiens, UniProt P21554); experiment: Lance Ultra cAMP accumulation assay, CHO cells; format: cell-based; set-up: expressed in transfected cells; conditions: replicates, sheet FigureS2a;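 further: human CB1R stably expressed in CHO cells, ligands co-incubated with forskolin at room temperature, read-out is lowering of forskolin-stimulated cAMP accumulation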
# Protocol: The inhibition of forskolin-stimulated cAMP accumulation assays was carried out using PerkinElmer’s Lance Ultra cAMP kit following the manufacturer’s protocol. In brief, CHO cells stably expressing human CB1R (provided by the lab of Laura Bohn) were harvested by incubation with Versene (ThermoFisher Scientific, Waltham, MA) for 10 min, washed once with Hank’s Balanced Salt Solution, and resuspended in stimulation buffer at ~200 cells/μL density. The ligands at eight different concentrations (0.001-10,000 nM) in stimulation buffer (5 μL) containing forskolin (2 μM final concentration) were added to a 384-well plate followed by the cell suspension (5 μL; ~1000 cells/well). The plate was incubated for 30 min at room temperature. Eu-cAMP tracer (5 μL) and Ulight-anti-cAMP (5 μL) working solutions were then added to each well, and the plate was incubated at room temperature for an additional 60 min. Results were measured on a Perkin-Elmer EnVision plate reader. The EC50 values were determined by nonlinear regression analysis using Graphpad Prism 9 and are expressed as the mean of three experiments, each performed in triplicate.
# hCB1 [4] = biological target: T2, hCB1; experiment: bioSensAll ebBRET signaling profiling, hCB1; format: cell-based; set-up: host or cells: HEK293SL cells, transient PEI transfection; conditions: for Barr2+GRK2 hCB1 response: Barr2+GRK2 biosensor; for Gi1 hCB1 / GoB hCB1: single replicate values, FigS6a
# CB1 (rCB1) [5] = biological target: T1, CB1 (rCB1); experiment: Radioligand competition binding, [3H]-CP-55,940, rat brain membranes
# T2 sequence (P21554 whole entry): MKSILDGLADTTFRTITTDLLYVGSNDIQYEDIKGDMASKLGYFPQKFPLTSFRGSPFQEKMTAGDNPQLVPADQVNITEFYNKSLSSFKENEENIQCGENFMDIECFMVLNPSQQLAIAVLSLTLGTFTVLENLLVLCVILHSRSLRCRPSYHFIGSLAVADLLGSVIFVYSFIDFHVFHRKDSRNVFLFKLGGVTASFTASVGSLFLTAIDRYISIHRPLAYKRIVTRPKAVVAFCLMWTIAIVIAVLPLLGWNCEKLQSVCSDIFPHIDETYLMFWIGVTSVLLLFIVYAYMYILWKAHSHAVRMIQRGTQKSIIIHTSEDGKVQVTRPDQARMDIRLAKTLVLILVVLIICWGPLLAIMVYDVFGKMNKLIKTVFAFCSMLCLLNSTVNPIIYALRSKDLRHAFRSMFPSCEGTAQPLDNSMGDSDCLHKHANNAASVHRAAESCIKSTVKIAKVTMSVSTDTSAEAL
# T1 sequence (P20272 whole entry): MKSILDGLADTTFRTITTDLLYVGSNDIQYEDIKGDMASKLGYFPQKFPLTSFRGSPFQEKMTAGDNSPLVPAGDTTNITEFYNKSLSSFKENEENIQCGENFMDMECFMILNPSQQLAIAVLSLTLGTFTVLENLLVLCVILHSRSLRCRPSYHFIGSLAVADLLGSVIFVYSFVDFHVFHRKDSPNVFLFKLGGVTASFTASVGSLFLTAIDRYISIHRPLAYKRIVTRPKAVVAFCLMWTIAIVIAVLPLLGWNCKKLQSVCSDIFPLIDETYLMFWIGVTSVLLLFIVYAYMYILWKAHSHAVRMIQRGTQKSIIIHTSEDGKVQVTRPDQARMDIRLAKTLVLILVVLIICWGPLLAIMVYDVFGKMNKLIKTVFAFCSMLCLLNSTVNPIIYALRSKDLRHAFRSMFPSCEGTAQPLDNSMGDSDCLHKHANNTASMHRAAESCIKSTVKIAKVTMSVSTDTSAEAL
smiles,measurement,setting,value
Cc1nc(CC2CC2)oc1-c1nc(Cc2cc3c(cc2Br)OCO3)no1 [‘7019],"% 1H-CP-55,940 displacement (mean) from single point screen","CB1 (rCB1) [1]; 10 µM, 1 µM or 300 nM by cell colour (not visible)",69.08%
same,rep1_displacement,"CB1 (rCB1) [1]; Figure 1c source data, replicate 1",67.1
same,rep2_displacement,"CB1 (rCB1) [1]; Figure 1c source data, replicate 2",70.3
same,rep3_displacement,"CB1 (rCB1) [1]; Figure 1c source data, replicate 3",69.9
same,DLS scattering intensity,[2]; uM] 0,2130000 and 1970000 and 1380000
same,DLS scattering intensity,[2]; uM] 1,1540000 and 2950000 and 1930000
same,DLS scattering intensity,[2]; uM] 1.49996,46500000 and 37100000 and 47300000
same,DLS scattering intensity,[2]; uM] 2,1480000* and 177000000 and 144000000
same,DLS scattering intensity,[2]; uM] -0.500011,1270000 and 1420000 and 400669
same,DLS scattering intensity,[2]; uM] -1,2530000 and 1820000 and 2230000
same,"cAMP assay signal, concentration-response point",hCB1 [3]; compound 0.01 nM,0.00339 and 0.00303 and 0.003953
same,"cAMP assay signal, concentration-response point",hCB1 [3]; compound 0.1 nM,0.003311 (2×) and 0.004082
same,"cAMP assay signal, concentration-response point",hCB1 [3]; compound 1 nM,0.003289 and 0.004926 and 0.003401
same,"cAMP assay signal, concentration-response point",hCB1 [3]; compound 10 nM,0.003247 and 0.002457 and 0.002907
same,"cAMP assay signal, concentration-response point",hCB1 [3]; compound 100 nM,0.002793 and 0.0025 and 0.003861
same,"cAMP assay signal, concentration-response point",hCB1 [3]; compound 1000 nM,0.003175 and 0.003571 and 0.003759
same,"cAMP assay signal, concentration-response point",hCB1 [3]; compound 10000 nM,0.00431 and 0.005952* and 0.003571
same,"cAMP assay signal, concentration-response point",hCB1 [3]; compound 100000 nM,0.0007716 and 0.001742 and 0.0006817
same,Barr2+GRK2 hCB1 response,hCB1 [4]; Log [Compound] (M) -4.22186,62.2028
same,Barr2+GRK2 hCB1 response,hCB1 [4]; Log [Compound] (M) -4.63927,5.727
same,Barr2+GRK2 hCB1 response,hCB1 [4]; Log [Compound] (M) -5.05788,-5.441
same,Barr2+GRK2 hCB1 response,hCB1 [4]; Log [Compound] (M) -5.47381,-3.845
same,Barr2+GRK2 hCB1 response,hCB1 [4]; Log [Compound] (M) -5.89285,30.2955
same,Barr2+GRK2 hCB1 response,hCB1 [4]; Log [Compound] (M) -6.31878,10.513
same,Barr2+GRK2 hCB1 response,hCB1 [4]; Log [Compound] (M) -6.72585,12.1083
same,Barr2+GRK2 hCB1 response,hCB1 [4]; Log [Compound] (M) -7.14267,9.875
same,Barr2+GRK2 hCB1 response,hCB1 [4]; Log [Compound] (M) -7.55284,-7.674
same,Barr2+GRK2 hCB1 response,hCB1 [4]; Log [Compound] (M) -8,3.174
same,Barr2+GRK2 hCB1 response,hCB1 [4]; Log [Compound] (M) -8.22186,10.513
same,Barr2+GRK2 hCB1 response,hCB1 [4]; Log [Compound] (M) -8.39794,2.217
same,Barr2+GRK2 hCB1 response,hCB1 [4]; Log [Compound] (M) -8.68787,-30.0093
same,Barr2+GRK2 hCB1 response,hCB1 [4]; Log [Compound] (M) -9.15521,-44.3676
same,Barr2+GRK2 hCB1 response,hCB1 [4]; Log [Compound] (M) -9.61989,-29.3712
same,Barr2+GRK2 hCB1 response,hCB1 [4]; Log [Compound] (M) -10.0969,-17.8845
same,Barr2+GRK2 hCB1 response,hCB1 [4]; Log [Compound] (M) -10.5529,-36.0717
same,Barr2+GRK2 hCB1 response,hCB1 [4]; Log [Compound] (M) -11.0177,-47.2392
same,Barr2+GRK2 hCB1 response,hCB1 [4]; Log [Compound] (M) -11.4949,-38.6243
same,Barr2+GRK2 hCB1 response,hCB1 [4]; Log [Compound] (M) -11.9208,-22.6706
same,Barr2+GRK2 hCB1 response,hCB1 [4]; Log [Compound] (M) -12.3979,-32.5619
same,Barr2+GRK2 hCB1 response,hCB1 [4]; Log [Compound] (M) -12.8861,-24.5851
same,Barr2+GRK2 hCB1 response,hCB1 [4]; Log [Compound] (M) -13.3979,-2.25
same,Gi1 hCB1,hCB1 [4]; Log [Compound] (M) -4.22186,-7.329
same,GoB hCB1,hCB1 [4]; Log [Compound] (M) -4.22186,-13.0099
same,Gi1 hCB1,hCB1 [4]; Log [Compound] (M) -4.63927,-8.042
same,GoB hCB1,hCB1 [4]; Log [Compound] (M) -4.63927,-13.6002
same,Gi1 hCB1,hCB1 [4]; Log [Compound] (M) -5.05788,-10.1639
same,GoB hCB1,hCB1 [4]; Log [Compound] (M) -5.05788,-11.5515
same,Gi1 hCB1,hCB1 [4]; Log [Compound] (M) -5.47381,-10.5282
same,GoB hCB1,hCB1 [4]; Log [Compound] (M) -5.47381,-15.1627
same,Gi1 hCB1,hCB1 [4]; Log [Compound] (M) -5.89285,-9.467
same,GoB hCB1,hCB1 [4]; Log [Compound] (M) -5.89285,-15.9787
same,Gi1 hCB1,hCB1 [4]; Log [Compound] (M) -6.31878,-6.569
same,GoB hCB1,hCB1 [4]; Log [Compound] (M) -6.31878,-12.489
same,Gi1 hCB1,hCB1 [4]; Log [Compound] (M) -6.72585,-4.716
same,GoB hCB1,hCB1 [4]; Log [Compound] (M) -6.72585,-9.694
same,Gi1 hCB1,hCB1 [4]; Log [Compound] (M) -7.14267,3.012
same,GoB hCB1,hCB1 [4]; Log [Compound] (M) -7.14267,-8.531
same,Gi1 hCB1,hCB1 [4]; Log [Compound] (M) -7.55284,0.08255
same,GoB hCB1,hCB1 [4]; Log [Compound] (M) -7.55284,-6.326
same,Gi1 hCB1,hCB1 [4]; Log [Compound] (M) -8,2.236
same,GoB hCB1,hCB1 [4]; Log [Compound] (M) -8,-8.913
same,Gi1 hCB1,hCB1 [4]; Log [Compound] (M) -8.22186,3.4083
same,GoB hCB1,hCB1 [4]; Log [Compound] (M) -8.22186,-2.3673
same,Gi1 hCB1,hCB1 [4]; Log [Compound] (M) -8.39794,2.078
same,GoB hCB1,hCB1 [4]; Log [Compound] (M) -8.39794,-8.01
same,Gi1 hCB1,hCB1 [4]; Log [Compound] (M) -8.68787,0.1776
same,GoB hCB1,hCB1 [4]; Log [Compound] (M) -8.68787,-4.607
same,Gi1 hCB1,hCB1 [4]; Log [Compound] (M) -9.15521,-0.1708
same,GoB hCB1,hCB1 [4]; Log [Compound] (M) -9.15521,-5.336
same,Gi1 hCB1,hCB1 [4]; Log [Compound] (M) -9.61989,0.4151
same,GoB hCB1,hCB1 [4]; Log [Compound] (M) -9.61989,-6.256
same,Gi1 hCB1,hCB1 [4]; Log [Compound] (M) -10.0969,-0.8202
same,GoB hCB1,hCB1 [4]; Log [Compound] (M) -10.0969,-5.6139
same,Gi1 hCB1,hCB1 [4]; Log [Compound] (M) -10.5529,1.635
same,GoB hCB1,hCB1 [4]; Log [Compound] (M) -10.5529,-5.77
same,Gi1 hCB1,hCB1 [4]; Log [Compound] (M) -11.0177,0.2092
same,GoB hCB1,hCB1 [4]; Log [Compound] (M) -11.0177,-3.426
same,Gi1 hCB1,hCB1 [4]; Log [Compound] (M) -11.4949,-0.7251
same,GoB hCB1,hCB1 [4]; Log [Compound] (M) -11.4949,-5.058
same,Gi1 hCB1,hCB1 [4]; Log [Compound] (M) -11.9208,-0.5034
same,GoB hCB1,hCB1 [4]; Log [Compound] (M) -11.9208,-3.392
same,Gi1 hCB1,hCB1 [4]; Log [Compound] (M) -12.3979,1.698
same,GoB hCB1,hCB1 [4]; Log [Compound] (M) -12.3979,-7.2806
same,Gi1 hCB1,hCB1 [4]; Log [Compound] (M) -12.8861,0.8586
same,GoB hCB1,hCB1 [4]; Log [Compound] (M) -12.8861,-4.763
same,Gi1 hCB1,hCB1 [4]; Log [Compound] (M) -13,6.94
same,GoB hCB1,hCB1 [4]; Log [Compound] (M) -13,-5.215
same,Gi1 hCB1,hCB1 [4]; Log [Compound] (M) cell empty,3.028
same,GoB hCB1,hCB1 [4]; Log [Compound] (M) cell empty,-6.482
same,"radioligand binding remaining, competition curve (Figure2e), replicate values",CB1 (rCB1) [5]; log[drug] -3.643,14.0395 and 10.3537 and 12.7126
same,"radioligand binding remaining, competition curve (Figure2e), replicate values",CB1 (rCB1) [5]; log[drug] -4.35655,11.9492 and 13.8721 and 12.5783
same,"radioligand binding remaining, competition curve (Figure2e), replicate values",CB1 (rCB1) [5]; log[drug] -5.07,46.5819 and 49.8809 and 53.387
same,"radioligand binding remaining, competition curve (Figure2e), replicate values",CB1 (rCB1) [5]; log[drug] -5.783,89.8305 and 82.4446 and 90.6893
same,"radioligand binding remaining, competition curve (Figure2e), replicate values",CB1 (rCB1) [5]; log[drug] -6.496,105.085 and 92.9907 and 91.4056
same,"radioligand binding remaining, competition curve (Figure2e), replicate values",CB1 (rCB1) [5]; log[drug] -7.21,98.1356 and 103.28 and 99.3733
same,"radioligand binding remaining, competition curve (Figure2e), replicate values",CB1 (rCB1) [5]; log[drug] -7.923,89.0395 and 99.5785 and 100.597
same,"radioligand binding remaining, competition curve (Figure2e), replicate values",CB1 (rCB1) [5]; log[drug] -8.636,97.4011 and 107.312 and 98.9257
same,pKi [95% CI],CB1 (rCB1) [5]; rCB1,5.39 [5.27 –5.52]

# From PMC11882969 (Nature Communications, 2025)
